Assay results as given in patent US7514429B2, “Benzoxazinone-derived compounds, their preparation and use as medicaments” (ESTEVE Laboratorios Dr. Esteve S.A., priority 2002, dated 2009).
Structures can show the parent of a compound that is named as a salt.

Tests used:
Neuropeptide Y2 = molecular target: T1, Neuropeptide Y2 (Rattus norvegicus, UniProt Q9ERC0); assay: Binding to Neuropeptide Y2, Method (III), rat hypoccampus membranes; conditions: [125I]-PYY(3-36)
T1 construct: their brains are rapidly removed and the hypoccampus is dissected; from tissue; host or cells: rat hippocampus membranes (male Wistar rats)
T1 sequence (Q9ERC0 1-381): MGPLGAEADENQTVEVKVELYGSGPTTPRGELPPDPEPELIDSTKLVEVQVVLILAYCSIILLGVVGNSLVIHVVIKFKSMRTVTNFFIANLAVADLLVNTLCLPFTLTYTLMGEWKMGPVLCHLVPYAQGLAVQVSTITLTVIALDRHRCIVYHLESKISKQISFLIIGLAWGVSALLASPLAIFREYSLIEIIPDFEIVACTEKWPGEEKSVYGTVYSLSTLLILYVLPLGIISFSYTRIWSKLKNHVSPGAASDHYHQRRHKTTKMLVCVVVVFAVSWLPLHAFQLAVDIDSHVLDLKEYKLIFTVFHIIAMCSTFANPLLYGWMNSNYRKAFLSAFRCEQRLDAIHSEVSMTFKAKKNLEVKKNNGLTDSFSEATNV
Protocol: Binding to Neuropeptide Y2
Said literature description is herewith incorporated by reference and forms part of the disclosure.
Male Wistar rats are sacrificed by decapitation, their brains are rapidly removed and the hypoccampus is dissected. Homogenization is performed in cold conditions in the buffer: 120 mM NaCl, 4.7 mM KCl, 2.2 mM CaCl2, 1.2 mM KH2PO4, 1.2 mM MgSO4, 25 mM NaHCO3, 5.5 mM glucose, pH 7.4, by means of a Ultra-Turrax homogenizer for 15 seconds at 13,500 rpm. The ratio between fresh tissue weight and buffer volume is of ten times. The membrane is centrifuged for 10 min at 48,000 g. The supernatant is discarded and the pellet is washed, resuspended and recentrifuged two more times. The final membrane resuspension is performed in the buffer: 120 mM NaCl, 4.7 mM KCl, 2.2 mM CaCl2, 1.2 mM KH2PO4, 1.2 mM MgSO4, 25 mM NaHCO3, 5.5 mM glucose, 0.1% BSA, 0.05% bacitracin, pH 7.4, at a 90 ml/g ratio of fresh issue. […] Incubation volume: 500 μl. […] The filters are cold-washed three times with three milliliters of the same buffer used in homogenization. […] Non-specific binding is determined in the presence of 1 μM of pNPY (Neuropeptide Y of porcine origin). The assays are performed in triplicate.

rats = assay: Nocturnal feeding (food intake measurement); assay type: in vivo, rat; conditions: vs. control group
Protocol: Behavioural Models (Food Intake Measurements)
In both test, animals rats (Male W, 200-270 g, obtained from Harlan, S. A) were used. The rats are acclimatized to the animal facility for at least 5 days before being subjected to any experimental procedure. During this period, animals were housed in groups of five in translucid cages and provided with food and water ad libitum. At least 24 hours before the tests, animals are adapted to single-housing conditions.
Food intake is measured in home cages in order to minimize non-specific stress effects on food intake resulting from changes in housing conditions. Food and water is available ad libitum. Immediately before lights turn off, rats are weighed, randomized and dosed (orally or intraperitoneally), either with vehicle or selected benzoxacine-compounds of general formula (I). Thereafter, rats are returned to home cages and food left on top covers is measured. Remaining food and animal's weight is measured next morning.
The above mentioned methods are described in Ants Kask et al., Europan Journal of Pharmacology 414 (2001) 215-224 and Turnbull et al., Diabetes, Vol. 51, August 2002, which are hereby incorporated by reference and form part of the disclosure.

rat Y5 receptor = molecular target: T2, rat Y5 receptor (Rattus norvegicus, UniProt Q63634); assay: Neuropeptide Y5 receptor binding, Method (II), C6 cells transfected with the rat Y5 receptor; conditions: [125I]-PYY, Y5 rat recombinant receptor, cell C6
T2 construct: expressed in transfected cells; host or cells: C6 cells
T2 sequence (Q63634 1-445): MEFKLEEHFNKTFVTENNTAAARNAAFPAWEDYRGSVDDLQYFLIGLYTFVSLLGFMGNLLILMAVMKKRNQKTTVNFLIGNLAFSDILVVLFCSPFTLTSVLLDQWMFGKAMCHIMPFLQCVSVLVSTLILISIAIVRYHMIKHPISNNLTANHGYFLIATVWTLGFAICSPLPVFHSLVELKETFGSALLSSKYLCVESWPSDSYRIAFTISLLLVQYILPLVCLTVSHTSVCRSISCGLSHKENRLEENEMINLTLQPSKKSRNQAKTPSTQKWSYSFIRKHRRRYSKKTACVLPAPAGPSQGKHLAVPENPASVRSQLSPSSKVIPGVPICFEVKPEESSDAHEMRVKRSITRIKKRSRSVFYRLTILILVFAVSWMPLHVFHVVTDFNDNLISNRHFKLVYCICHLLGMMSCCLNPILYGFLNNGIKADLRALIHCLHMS
Protocol: Neuropeptide Y5 Receptor Binding Studies:
The methods used for membrane preparation and binding are similar to those described by Y. Hu, B. T. Bloomquist et al. in Y. Hu, B. T. Bloomquist et al., The Journal of Biological Chemistry, 1996, 271, 26315-26319 with modifications. Said literature description is herewith incorporated by reference and forms part of the disclosure. Cells C6 were transfected with the rat Y5 receptor. The cells were grown under standard culture conditions in 150 cm^2 dishes and they were harvested using a rubber scraper and 10 ml PBS. The cells from five dishes were collected and centrifuged 2.500 g for 5 min (4° C). The pellet was washed by resuspending in 3 ml buffer (Tris-HCl 10 mM, pH 7.4), homogenized using a Potter S homogenizer, 10 strokes at 600 rpm and centrifuged 48.000 g for 20 min (4° C.). The pellet was resuspended in 8 ml membrane buffer (Tris-HCl 25 mM, NaCl 120 mM, KCl 5 mM, KH2PO4 1.2 mM, CaCl2 2.5 mM, MgSO4 1.2 mM, BSA 0.15 mg/ml, Bacitracine 0.5 mg/ml, pH 7.4) and rehomogenized using the Potter S, 10 strokes at 600 rpm. The protein concentration in the incubation was 40 μg/ml. The radioligand was [^125I]-PYY (100 pM) in a total incubation volume of 200 μl. Following incubation at 25° C. for 2 h, the reaction was stopped by addition of 5 ml ice-cold buffer (Tris-HCl 25 mM, NaCl 120 mM, KCl 5 mM, KH2PO4 1.2 mM, CaCl2 2.5 mM, MgSO4 1.2 mM, pH 7.4) and rapid filtration in a Harvester Brandell Cell using filters (Schleicher & Schuell G F 3362) pretreated for two hours with 0.5% polyethyleneimine. Filters were washed one time with 5 ml ice-cold buffer. The filters were placed into plastic scintilation vials and 5 ml scintilation cocktail Ecoscint H were added. The quantity of radioactivity present was determined in a Wallac Winspectral 1414 counter. Non specific binding was determined in the presence of 1 μM de pNPY. All binding assays were done in triplicate.

Cc1cccc2c1N(C1CCN(CC(=O)Nc3ccc4c(c3)-c3ccccc3C4=O)CC1)C(=O)OC2 (as salt: HCl) [Example 35, 2-[4-(8-Methyl-2-oxo-4H-benzo[d][1,3]oxazin-1-yl)-piperidin-1-yl]-N-(9-oxo-9H-fluoren-3-yl)-acetamide hydrochloride]
melting point: 233 to 236 °C

O=C(CN1CCC(N2C(=O)OCc3ccccc32)CC1)Nc1ccc2c(c1)-c1ccccc1C2=O [Example 3, 2-[4-(2-oxo-4H-benzo[d][1,3]oxazin-1-yl)-piperidin-1-yl]-N-(9-oxo-9H-fluoren-3-yl)-acetamide hydrochloride]
Ki (Neuropeptide Y2): > 1 µM

CCn1c2ccccc2c2cc(NC(=O)CN3CCC(N4C(=O)OCc5ccccc54)CC3)ccc21 [Example 18, N-(9-Ethyl-9H-carbazol-3-yl)-2-[4-(2-oxo-4H-benzo[d][1,3]oxazin-1-yl)-piperidin-1-yl]-acetamide hydrochloride]
Effect: body weight of treated animals (rats; 40 mg/kg i.p. administration): reduces body weight of
Effect: food intake (rats; 40 mg/kg i.p. administration): Decreases food intake and

Cc1ccc2c(c1)COC(=O)N2C1CCN(CC(=O)Nc2ccc3c(c2)-c2ccccc2C3=O)CC1 [Example 20, 2-[4-(6-methyl-2-oxo-4H-benzo[d][1,3]oxazin-1-yl)-piperidin-1-yl]-N-(9-oxo-9H-fluoren-3-yl)-acetamide hydrochloride]
Effect: body weight of treated animals (rats; 40 mg/kg i.p. administration): reduces body weight of
Effect: food intake (rats; 40 mg/kg i.p. administration): Decreases food intake and
Ki (Neuropeptide Y2): > 1 µM

Cc1cccc2c1N(C1CCN(CC(=O)Nc3ccc4c(c3)-c3ccccc3C4=O)CC1)C(=O)OC2 [Example 35, 2-[4-(8-Methyl-2-oxo-4H-benzo[d][1,3]oxazin-1-yl)-piperidin-1-yl]-N-(9-oxo-9H-fluoren-3-yl)-acetamide hydrochloride]
Effect: body weight of treated animals (rats; 20 mg/kg i.p. administration): reduces body weight of
Effect: food intake (rats; 20 mg/kg i.p. administration): Decreases food intake and

COc1cccc2c1COC(=O)N2C1CCN(CC(=O)Nc2ccc3sc4ccccc4c3c2)CC1 [Example 107, N-Dibenzothiophene-2-yl-2-[4-(5-methoxy-2-oxo-4H-benzo[d][1,3]oxazin-1-yl)-piperidin-1-yl]-acetamide]
IC50 (rat Y5 receptor): 0.0235 µM

Cc1nc2cc(NC(=O)CN3CCC(N4C(=O)OCc5cc(F)ccc54)CC3)ccc2s1 [Example 114, 2-[4-(6-Fluoro-2-oxo-4H-benzo[d][1,3]oxazin-1-yl)-piperidin-1-yl]-N-(2-methyl-benzothiazole-5-yl)-acetamide]
IC50 (rat Y5 receptor): 0.0407 µM

COc1ccc2c(c1)COC(=O)N2C1CCN(CC(=O)Nc2ccc3sc(C)nc3c2)CC1 [Example 116, 2-[4-(6-Methoxy-2-oxo-4H-benzo[d][1,3]oxazin-1-yl)-piperidin-1-yl]-N-(2-methyl-benzothiazole-5-yl)-acetamide]
IC50 (rat Y5 receptor): 0.106 µM
